These are literature values, as cited in patent US20230364078A1, “METHOD OF PREPARING NANOPARTICLES COMPRISING POORLY WATER SOLUBLE DRUGS FOR TREATING HEPATITIS” (priority 2022, published 2023).

Structures are written as SMILES.

Details of series [1]: key: Class 1 has high solubility and permeability; Class 2 has low solubility but good permeability; Class 3 has high solubility but low permeability; Class 4 has low solubility and permeability. Conditions: water solubility and intestinal permeability.
The conditions of series [2]: non-nanosized drug.
For series [3] the following is noted: solvent ethanol.

For the compound `C=C[C@@H]1C[C@]1(NC(=O)[C@@H]1C[C@@H](Oc2ncc(OC)c3ccc(Cl)cc23)CN1C(=O)[C@@H](NC(=O)OC(C)(C)C)C(C)(C)C)C(=O)NS(=O)(=O)C1CC1` [Formula 3, Asunaprevir], the BCS class in series [1] is 2. The solubility in water entry in series [2] is listed as “very little soluble in water”. Also, the solubility to ethanol in series [3] is 100 mg/mL.

For `C=C[C@@H]1C[C@]1(NC(=O)[C@@H]1C[C@@H]2CN1C(=O)[C@H](C(C)(C)C)NC(=O)O[C@@H]1C[C@H]1CCCCCc1nc3ccc(OC)cc3nc1O2)C(=O)NS(=O)(=O)C1CC1` [Formula 2, Grazoprevir], the BCS class in series [1] was 2. Further, the solubility in water result in series [2] was “very little soluble in water”. For the same compound, in series [3], the solubility to ethanol is 15 mg/mL.

As to `COC(=O)N[C@H](C(=O)N1CCC[C@H]1c1ncc(-c2ccc(-c3ccc(-c4cnc([C@@H]5CCCN5C(=O)[C@@H](NC(=O)OC)C(C)C)[nH]4)cc3)cc2)[nH]1)C(C)C` [Formula 1, Daclatasvir], the BCS class in series [1] is given as 2. Further, the solubility in water entry in series [2] was “insoluble in water”. In series [3], the solubility to ethanol is 148 mg/mL.

As to `COC[C@H]1C[C@@H](c2nc(-c3ccc4c(c3)COc3cc5c(ccc6nc([C@@H]7CC[C@H](C)N7C(=O)[C@@H](NC(=O)OC)C(C)C)[nH]c65)cc3-4)c[nH]2)N(C(=O)[C@H](NC(=O)OC)c2ccccc2)C1` [Formula 4, Velpatasvir], in series [1], the BCS class is listed as 4. Moreover, the solubility to ethanol in series [3] was 30 mg/mL.
